Source: paper PMC5206489 (Journal of chemical information and modeling, 2016)

Legend:
BG505 SOSIP.664 = assay: Competition ELISA, BG505 SOSIP.664 binding to CD4IgG2; parameters: species or system HIV-1; settings: full dose response not achieved owing to solubility limits
HIV-1YU2 = settings: read-out: IC50 (HIV-1YU2); viral infectivity, HIV-1YU2 strain; cited from earlier work
core monomeric gp120 = settings: binding affinity on gp120 core monomer; cited from earlier work

SMILES | inhibition of SOSIP trimer protein binding to sCD4 (in words) (BG505 SOSIP.664) | IC50 (HIV-1YU2) | Kd (core monomeric gp120)
CC1(C)CC(NC(=O)C(=O)Nc2ccc(Cl)cc2)CC(C)(C)N1 [compound 1] | weaker inhibition | > 100000 nM | 3700 nM
CN(Cc1ccc2c(c1)C[C@H](CN=C(N)N)[C@H]2NC(=O)C(=O)Nc1ccc(Cl)c(F)c1)C(=N)N [compound 5] |  | 800 ± 100 nM | 100 nM
